Experimental data published in patent US5932709A (University of Michigan, priority 1997, dated 1999).
Values after ≈ are worked out from the molar mass of the structure shown. “Also recorded” adds a separate entry of the source.

Legend:
murine B16 melanoma = assay: Murine B16 melanoma model in vivo; parameters: species or system mouse (B6D2F1); conditions: for Survivors: 60-day
Description: 1) Murine B16 Melanoma Model
(§1) For the B16 melanoma model, the following procedure was used. B6D2F1 mice receive i.p. inocula of B16 murine melanoma brei prepared from B16 tumors growing s.c. in mice (day 0). […] If dosing information for agents is not available, the maximum tolerated dose (MTD) is determined in initial dose finding experiments in non-tumored mice.
(§2) The mean survival times of all groups are calculated, and results are expressed as mean survival of treated mice/mean survival of control mice (T/C)×100%. A T/C value of 150 means that the mice in the treated group lived 50% longer than those of the control group; this is sometimes referred to as the increase in life span or ILS value.
Mice that survive for 60 days are considered long-term survivors, or cures, in the B16 model. The universally accepted cut-off for activity in this model, which has been for years by the National Cancer Institute, is T/C=125. Conventional use of B16 over the years has set the following levels of activity: T/C<125, no activity, T/C=125-150, weak activity; T/C=150-200, modest activity; T/C=200-300, high activity; T/C>300, with long term survivors; excellent, curative activity.

[1] = test system: MX-1 human breast tumor xenograft; assay: in vivo
Text: For all the models, the vehicle used to deliver the analog of interest was isotonic saline.
For the MX-1 human breast tumor xenograft models, the following procedure was used. Nude mice are implanted s.c. by trocar with fragments of MX-1 mammary carcinomas harvested from s.c. growing MX-1 tumors in nude mice hosts. When tumors are approximately 5 mm×5 mm in size (usually about ten days after inoculation), the animals are pair-matched into treatment and control groups. Each group contains ten tumored mice, each of which is ear-tagged and followed individually throughout the experiment. The administration of drugs or vehicle begins the day the animals are pair-matched (day 1). The doses, route of drug administration and schedule are selected as appropriate for the study in question. If the MTD dose of an agent is not known, it is determined in an initial dosing experiment in non-tumored mice. In a typical experiment, drugs are given at their MTD and 1/2 MTD doses i.p. on a daily×5 schedule.
The experiment is usually terminated when control tumors reach a size of 2-3 g. Mice are weighed twice weekly, and tumor measurements are taken by calipers twice weekly, starting on day 1. These tumor measurements are converted to mg tumor weight by a well known formula, and from these calculated tumor weights the termination date can be determined. Upon termination, all mice are weighed, sacrificed, and their tumors excised. Tumors are weighed, and the mean tumor weight per group is calculated.
Some drugs cause tumor shrinkage in the MX-1 model. With these agents, the final weight of a given tumor is subtracted from its own weight at the start of the treatment on day 1. This difference divided by the initial tumor weight is the % shrinkage. A mean % tumor shrinkage can be calculated from data from the mice in a group that experienced MX-1 regressions. If the tumor completely disappears in a mouse, this is considered a complete regression or complete tumor shrinkage. If desired, mice with partial or total tumor regressions can be kept alive past the termination date to see whether they live to become long term, tumor-free survivors.
Note that in the following table the abbreviation SR refers to tumor shrinkage rate, while those entries followed by a superscripted `2` are tumor growth inhibition rates, not tumor shrinkage rates.

[2] = Water solubility in phosphate buffered saline (spectrophotometric assay); assay type: physicochemical; conditions: for solubility at 24 h: aqueous buffer, water solubility, PBS pH 7.5, room temperature
Description: Approximately 5 mg of test compound was suspended in 1 mL of PBS in a 1.5 mL cryovial. The suspensions were mixed continuously on a Thermolyne vari-mix at room temperature for 24 hr. The suspensions were then centrifuged at 14000×g for 2 minutes to separate the undissolved materials. The supernatant fluids were diluted appropriately with PBS and the ultraviolet spectrums were recorded on a Beckman 640 DU spectrophotometer. For comparison, a standard stock (2 mg/mL in DMSO) solution was prepared for each analog. The ultraviolet spectrum of a 20 of 40 μg/mL standard working solution was measured. The water solubility of each analog was calculated based on the following formula:
Cunknown =Cstandard ×(Aunknown
where Cunknown is the concentration of the unknown solution to be determined; Cstandard is the concentration of the standard working solution (either 20 or 40 μg/mL); Astandard is the absorbance at 350 nm of the standard working solution; DDilution is the appropriate dilution factor used so that the absorbance of the unknown working solution is within the dynamic range of the UV spectrophotometer (less than 2 absorbance units).

murine P388 leukemia = assay: Murine P388 leukemia model in vivo; parameters: species or system mouse (B6D2F1); conditions: for Survivors: 30-day; for toxic deaths: at the high dose; for efficacy vs P388 leukemia: i.p. five day schedule; for 30-day survivors (cures): 100 mg/kg
Description: as §1, §2
For the P388 leukemia model, the procedure followed is exactly the same as the aforementioned B16 model. The tumor inoculum is prepared by removing ascited fluid containing P388 cells from tumored B6D2F1 mice, centrifuging the cells, and then resuspending the leukemia cells in saline. Mice receive 1×10^6 P388 cells i.p. on day 0.

[3] = lower dose of 100 mg/kg (so in the source)

## CC[C@@]1(O)C(=O)OCc2c1cc1n(c2=O)Cc2c-1nc1ccccc1c2CO[C@@H]1C=C[C@H](OC(C)=O)[C@@H](COC(C)=O)O1 [HAR4, 7-[4,6-di-O-acetyl-2,3-dideoxy-α-D-erythro-hex-2-enopyranosyl]oxymethylcamptothecin]
Murine B16 melanoma; 10 mg/kg
  cures: one
Murine B16 melanoma; 10 mg/kg i.p. daily×5
  T/C (mean survival treated/control): 189%
  Tox Deaths: 0/10
  ΔWeight (%): +6.6%
  Survivors: 1/10
Murine B16 melanoma; 20 mg/kg
  cures: one
Murine B16 melanoma; 20 mg/kg i.p. daily×5
  T/C (mean survival treated/control): 212%
  Tox Deaths: 1/10
  ΔWeight (%): -15.6%
  Survivors: 1/10
Murine B16 melanoma; high dose group
  toxic deaths: one
[1]; 10 mg/kg
  complete disappearance of tumors (animals): 2
[1]; 10 mg/kg i.p. daily×5
  Tox Deaths: 0/10
  ΔWeight (%): -10.2%
[1]; 10 mg/kg i.p. daily×5, 8/10 animals
  SR(%) (Tumor Shrinkage Rate): 77%
[1]; 10 mg/kg i.p. daily×5, partial (77%)
  Shrinkage (animals): 8/10
[1]; 10 mg/kg, 2/10 animals
  SR(%) (Tumor Shrinkage Rate): 100%
[1]; 10 mg/kg, complete (100%) shrinkage
  Shrinkage (animals): 2/10
[1]; 10 mg/kg, mean 77%
  mice with tumor shrinkage: 8
[1]; 20 mg/kg i.p. daily×5
  SR(%) (Tumor Shrinkage Rate): 99%
  Shrinkage (animals): 1/10
  Tox Deaths: 9/10
[1]; 20 mg/kg, in words
  toxicity: toxic
[1]; in words
  antitumor activity vs. MX-1: almost equivalent, outstanding activity
[2]
  solubility at 24 h: 155 µg/mL (≈ 262 µM)
Murine P388 leukemia; 10 mg/kg
  cures: two
Murine P388 leukemia; 10 mg/kg i.p. daily×5
  T/C (mean survival treated/control): 201%
  Tox Deaths: 0/10
  ΔWeight (%): -0.6%
  Survivors: 2/10
Murine P388 leukemia; 20 mg/kg
  cures: two
Murine P388 leukemia; 20 mg/kg i.p. daily×5
  T/C (mean survival treated/control): 206%
  Tox Deaths: 0/10
  ΔWeight (%): -14.0%
  Survivors: 2/10
Murine P388 leukemia
  toxic deaths: no toxic deaths occurred
Murine P388 leukemia; at the high dose (MTD)
  weight loss: 12%-16
Murine P388 leukemia; in words
  efficacy vs P388 leukemia: high, curative efficacy; also recorded: excellent activity vs. P388

## CC[C@@]1(O)C(=O)OCc2c1cc1n(c2=O)Cc2c-1nc1ccccc1c2CO[C@@H]1C=C[C@H](O[C@H]2O[C@H](CO)[C@@H](O)[C@H](O)[C@H]2O)[C@@H](CO)O1 [HAR6, 7-[4-O-(α-D-glucopyranosyl)-2,3-dideoxy-α-D-erythro-hex-2-enopyranosyl]-oxymethylcamptothecin]
Murine B16 melanoma; 100 mg/kg
  60-day survivors (cures): no cures
  drug-related deaths: one
Murine B16 melanoma; 100 mg/kg i.p. daily×5
  T/C (mean survival treated/control): 184%
  Tox Deaths: 1/10
  ΔWeight (%): -13.8%
  Survivors: 0/10
Murine B16 melanoma; 100 mg/kg i.p. five day schedule
  weight loss: approximately 14%
Murine B16 melanoma; 150 mg/kg i.p. daily×5
  T/C (mean survival treated/control): 185%
  Tox Deaths: 7/10
  ΔWeight (%): -27.2%
  Survivors: 0/10
[1]; 50 mg/kg
  mice with growth inhibition: 2
  mice with tumor shrinkage: 8
[1]; 50 mg/kg i.p. daily×5
  SR(%) (Tumor Shrinkage Rate): 81%
  Shrinkage (animals): 8/10
  Tox Deaths: 0/10
  ΔWeight (%): +2.5%
[1]; 50 mg/kg, remaining 2 animals
  tumor growth inhibition: 82%
[1]; 100 mg/kg
  body weight loss: approximately 19%
  drug-related deaths: the tenth animal died of toxicity and one
  mice with tumor shrinkage: 9
[1]; 100 mg/kg i.p. daily×5
  SR(%) (Tumor Shrinkage Rate): 94%
  Shrinkage (animals): 9/10
  Tox Deaths: 1/10
  ΔWeight (%): -18.6%
[1]; in words
  antitumor activity vs. MX-1: impressive antitumor activity vs. MX-1
[2]
  solubility at 24 h: 1620 µg/mL (≈ 2420 µM)
[2]; compared to camptothecin
  water solubility improvement: 80 fold
Murine P388 leukemia; 50 mg/kg i.p. daily×5
  T/C (mean survival treated/control): 225%
  Tox Deaths: 0/10
  ΔWeight (%): -3.5%
  Survivors: 1/10
Murine P388 leukemia
  30-day survivors (cures): three
  toxic deaths: no toxic deaths occurred
Murine P388 leukemia; 100 mg/kg i.p. daily×5
  T/C (mean survival treated/control): 320%
  Tox Deaths: 0/10
  ΔWeight (%): -12.2%
  Survivors: 3/10
Murine P388 leukemia; at the high dose (MTD)
  weight loss: 12%-16
Murine P388 leukemia; in words
  efficacy vs P388 leukemia: high, curative efficacy
Murine P388 leukemia; [3]
  T/C: 225%
  cures: one

## CC[C@@]1(O)C(=O)OCc2c1cc1n(c2=O)Cc2c-1nc1ccccc1c2CO[C@@H]1C=C[C@H](O[C@H]2O[C@H](COC(C)=O)[C@@H](OC(C)=O)[C@H](OC(C)=O)[C@H]2OC(C)=O)[C@@H](COC(C)=O)O1 [HAR5, 7-[6-O-acetyl-4-O-(2,3,4,6-tetra-O-acetyl-α-D-glucopyranosyl)-2,3-dideoxy-α-D-erythro-hex-2-enopyranosyl]oxymethylcamptothecin]
Murine B16 melanoma; 100 mg/kg
  60-day survivors (cures): three
Murine B16 melanoma; 100 mg/kg i.p. daily×5
  T/C (mean survival treated/control): 239%
  Tox Deaths: 0/10
  ΔWeight (%): +9.0%
  Survivors: 3/10
Murine B16 melanoma; 200 mg/kg
  60-day survivors (cures): three
Murine B16 melanoma; 200 mg/kg i.p. daily×5
  T/C (mean survival treated/control): 232%
  Tox Deaths: 0/10
  ΔWeight (%): +5.9%
  Survivors: 3/10
Murine B16 melanoma; among the four analogs, in words
  efficacy vs. B16: highest efficacy vs. B16
[1]; 100 mg/kg i.p. daily×5
  Tox Deaths: 0/10
  animals with tumor growth inhibition (Shrinkage column): 10/10
  ΔWeight (%): +7.4%
[1]; 100 mg/kg i.p. daily×5, 10/10 animals
  Tumor growth inhibition rate (footnote 2, SR column): 48%
[1]; 200 mg/kg
  mice with growth inhibition: 7
  mice with tumor shrinkage: 3
[1]; 200 mg/kg i.p. daily×5
  Shrinkage (animals): 3/10
  Tox Deaths: 0/10
  animals with tumor growth inhibition (Shrinkage column): 7/10
  ΔWeight (%): +5.3%
[1]; 200 mg/kg i.p. daily×5, 3/10 animals
  SR(%) (Tumor Shrinkage Rate): 73%
[1]; 200 mg/kg i.p. daily×5, 7/10 animals
  Tumor growth inhibition rate (footnote 2, SR column): 82%
[2]
  solubility at 24 h: 35 µg/mL (≈ 39.8 µM)
Murine P388 leukemia
  30-day survivors (cures): one
Murine P388 leukemia; 100 mg/kg i.p. daily×5
  T/C (mean survival treated/control): 141%
  Tox Deaths: 0/10
  ΔWeight (%): +0.7%
  Survivors: 1/10
Murine P388 leukemia; 200 mg/kg i.p. daily×5
  T/C (mean survival treated/control): 161%
  Tox Deaths: 0/10
  ΔWeight (%): -2.0%
  Survivors: 0/10
Murine P388 leukemia; at its solubility-limiting dose, in words
  weight loss: only insignificant weight loss
Murine P388 leukemia; in words
  efficacy vs P388 leukemia: less efficacious compared to the other three compounds
